One data set deals with rats. Particulars: doses as high as 30 mg/kg; cited from earlier work.
The test system of data set [1] is rats subjected to MCAO. Briefly: isolectin IB4 labeling, activated microglia/macrophages after MCAO. In kind it is in vivo, rat. Particulars: 15 mg/kg DTG from 24 h post-MCAO. As for the experimental part:
MCAO surgery was performed as previously reported by Vendrame et al (Vendrame et al., 2004) and originally described by Longa et al (Longa et al., 1989). Laser Doppler Radar (LDR) was used to monitor decrease in blood perfusion which indicates successful occlusion (Moor Instruments Ltd, Devon, England). A 2 mm diameter hole was drilled into the right parietal bone (1 mm posterior and 4 mm lateral from bregma), and a guide screw was set. The LDR probe (MP10M200ST; Moor) was inserted into the guide screw, and the tip of the probe was placed against the pial surface of the brain. […] For MCAO, the embolus (4 cm long, 6 lb test monofilament) was advanced up the internal carotid artery into the middle cerebral artery and tied off at the internal/external carotid junction to produce permanent occlusion. The rat was then sutured, given a 1 ml subcutaneous injection of saline, and allowed to wake in a fresh cage.
Rats were randomly assigned to 1 of 7 groups: (1) MCAO (n=7); (2) MCAO and 15 mg/kg DTG in a 3% lactic acid vehicle (n=11); (3) MCAO and 30 mg/kg DTG (n=16); (4) MCAO and bi-daily injections of 30 mg/kg DTG (n=12); (5) MCAO and 10 mg/kg N-[2-(3,4-dichlorophenyl)ethyl]-N-methyl-2-(dimethylamino)ethylamine (BD 1047) (n=4); (6) MCAO and 10 mg/kg BD1047+30 mg/kg DTG (n=4); (7) sham/MCAO and 15 mg/kg DTG (n=4). […]

The subject of data set [2] is cultured cortical neurons. Briefly: in vitro ischemia (sodium azide/glucose deprivation), fura-2 [Ca2+]i. In kind it is cell-based, rat. The procedure: The effects of sigma receptors on ischemia-induced changes in intracellular calcium concentrations were studied in cultured cortical neurons from embryonic (E18) rats. Dams were euthanatized by decapitation, uterus removed, and embryos dissected out and placed in isotonic buffer containing (in mM): 137 NaCl, 5 KCl, 0.2 NaH2PO4, 0.2 KH2PO4, 5.5 glucose, 6 sucrose (pH 7.4 with NaOH). Cortex were excised and minced, and tissue digested in isotonic buffer containing 0.25% trypsin/EDTA for 10 min at 37° C. and added to 3× volume of high glucose culture media (Dulbecco's Modified Eagle Media; Invitrogen, Inc., Carlsbad, Calif.), 10% (v/v) fetal calf serum, 100 U/ml penicillin and 0.1 mg/ml streptomycin. Cells were counted on a hemocytometer, plated (0.5×10^6 cells) on 18 mm coverslips coated with poly-l-lysine, and incubated at 37° C. under a 95% air, 5% CO2 atmosphere. After 24 hr the media was replaced with Neurobasal (Invitrogen) medium supplemented with B27 (Invitrogen) and 0.5 mM 1-glutamine to limit astrocyte proliferation in the cultures. Cells were used after 14-21 days in culture.
Intracellular free-calcium was measured using the calcium sensitive dye, fura-2 as previously described (DeHaven and Cuevas, 2004). Cells plated on coverslips were incubated for 1 hour at room temperature in physiological saline solution (PSS) consisting of (in mM): 140 NaCl, 3 KCl, 2.5 CaCl2, 1.2 MgCl2, 7.7 glucose and 10 HEPES (pH to 7.2 with NaOH), which also contained 1 μM of the membrane permeable ester form of fura-2, acetoxymethylester (fura-2 AM) and 0.1% dimethyl sulfoxide (DMSO). The coverslips were then washed in PSS (fura-2 AM free) prior to the experiments being carried out. All solutions were applied via a rapid application system identical to that previously described (Cuevas and Berg, 1998).
A DG-4 high-speed wavelength switcher (Sutter Instruments Co., Novato, Calif.) was used to apply alternating excitation light, and fluorescent emission was captured using a Sensicam digital CCD camera (Cooke Corporation, Auburn Hills, Mich.) and recorded with Slidebook 3.0 software (Intelligent Imaging Innovations, Denver, Colo.). Changes in [Ca^2+]i were calculated using the Slidebook 3 software (Intelligent Imaging Innovations) using methods described previously (DeHaven and Cuevas, 2004).
In vitro ischemia was achieved using the sodium azide/glucose deprivation model.
The control bath solution for all experiments was a physiological saline solution (PSS) containing (in mM) 140 NaCl, 1.2 MgCl2, 3 KCl, 2.5 CaCl2, 7.7 glucose and 10 HEPES, pH to 7.2 with NaOH. All drugs were applied in this solution unless otherwise noted. In vitro ischemia was induced by addition of the cytochrome oxidase inhibitor, NaN3 (4 mM), and removal of glucose from the PSS. For experiments in which multiple ischemic episodes were induced in a single cell, the order of drug application was alternatively reversed to compensate for any effects due to rundown, desensitization or ischemic preconditioning. For experiments with metaphit, cells were preincubated in 50 μM metaphit during the last 15 mm of fura-2 loading and immediately prior to experiments being conducted. The metaphit was washed off for 5 min in the bath using PSS.

The subject of data set [3] is rats subjected to MCAO. The data set is described as follows: Fluoro-Jade infarct area after MCAO. The data set is classed as in vivo, rat.

This is an account of results in patent publication US20070123556A1, “Treatment with Sigma Receptor Agonists Post-Stroke” (UNIVERSITY OF SOUTH FLORIDA, priority 2005, published 2007).

Structures are written as SMILES. Values joined by “and” are separate entries in the source; they are usually repeats but may differ in a detail not shown here. Equal entries are not always repeated. Where only a bound is given, the exact number is not on record here.

In the case of `Cc1ccccc1NC(=N)Nc1ccccc1C` [DTG, 1,3-di-o-tolyguanidine], the tolerability result with rats is listed as “well tolerated”. Moreover, the “isolectin IB4-positive cells in the infarct zone” value in the data set on rats subjected to MCAO [1] is recorded as “fails to elicit these elevations”. In addition, the “ischemia-induced elevation in [Ca2+]i” value in data set [2] (50 μM DTG after preincubation in 50 μM metaphit) was 237 ± 39 nM; in data set [2] (50 μM DTG, no metaphit (control 291±47 nM)) it was 47 ± 9 nM. In data set [2] (50 μM DTG, cells preincubated in 50 μM metaphit), the “decrease of ischemia-evoked elevation in [Ca2+]i” value is listed as 52±8%. The “decrease of ischemia-evoked rise in [Ca2+]i” value in data set [2] (50 μM DTG, control cells) was ~70% and 83±3%. For the same compound, the “decrease of Fluoro-Jade staining relative to untreated MCAO animals” value in the data set with rats subjected to MCAO [3] (15 mg/kg, 24 hr post stroke) is > 85%. The “infarct area (Fluoro-Jade labeled)” value in the data set with rats subjected to MCAO [3] (cortical/hippocampal region, 15 mg/kg DTG from 24 h post-MCAO (MCAO-only 29±3%)) is reported as 2±2%; with rats subjected to MCAO [3] (cortical/striatal region, 15 mg/kg DTG from 24 h post-MCAO (MCAO-only 44±5%)), 6±4%.
